Laboratory results: US20120270928A1, “MICRORNA COMPOUNDS AND METHODS FOR MODULATING MIR-21 ACTIVITY” (REGULUS THERAPEUTICS INC., priority 2011, published 2012)
Values joined by “and” are separate entries in the source; they are usually repeats but may differ in a detail not shown here. Identical values can stand only once.

Key:
[1] = test system: model of ischemia reperfusion injury (IRI); assay: Unilateral ischemia reperfusion injury (IRI) model: kidney collagen 1A1 and collagen 3A1 expression; assay type: in vivo, mouse; conditions: for Collagen 3A1 (Normalized Expression) Mean / Collagen 1A1 (Normalized Expression) Mean: group mean; for Collagen 1A1 (Normalized Expression) / Collagen 3A1 (Normalized Expression): individual animals
Protocol: A model of ischemia reperfusion injury (IRI) is created in the mouse through unilateral or bilateral clamping of kidney arteries, which leads to tubule damage, inflammation, and fibrosis. Kidney dysfunction can occur either early (<5 days) or late (>7 days) in this model, with the early time points useful to test candidate agents for the treatment of acute kidney injury, and the later time points useful to model chronic fibrosis.
Anti-miR-21 compounds were tested in the unilateral IRI model. Unilateral IRI was induced for a period of 30 minutes. Treatment groups were as follows: sham IRI procedure; IRI with PBS administered subcutaneously; IRI with anti-miR-21 compound 25070 administered intraperitoneally at a dose of 20 mg/kg; the 2′-fluoro/2′-MOE modified anti-miR-21 25919 administered intraperitoneally at a dose of 20 mg/kg; and a 2′-fluoro/2′ modified mismatch anti-miR-21 (having three mismatches to the sequence of miR-21) 25319 administered intraperitoneally at a dose of 20 mg/kg. PBS or anti-miR compound was administered on days 5, 6, and 7 following IRI, and animals were sacrificed 14 days after IRI. As anti-miR compound is administered 5 days following the injury to the kidney, or later, when fibrosis has already occurred to some extent, this treatment regimen is considered a therapeutic regimen, rather than a prophylactic regimen.
Kidney tissue was collected for analysis of collagen 1A1 and collagen 3A1 expression (shown in Table 0), and collagen area fraction (shown in Table P).
A similar study was performed with the same treatment groups and additional days of treatment. In this study, treatments were administered intraperitoneally at days 5, 6, 7, 14, and 21 following the IRI procedure Animals were sacrificed on Day 27, and kidney tissue was collected for analysis of collagen 1A1 and collagen 3A1 expression, as well as collagen area fraction.
In order to assess the flexibility of administration of the anti-miR-21 compound 25070, the activity of the compound in the 14 day study above, where anti-miR-21 was administered at […] following the IRI procedure, to a different 14 day study where anti-miR-21 was administered intraperitoneally at days 3, 5, and 7 following the IRI procedure.

[2] = test system: UUO model of kidney fibrosis; assay: Unilateral ureteral obstruction (UUO) model of kidney fibrosis: kidney collagen 1A1 and collagen 3A1 expression by real-time PCR; assay type: in vivo, mice; conditions: for Collagen 3A1 (Normalized Expression) Mean / Collagen 1A1 (Normalized Expression) Mean: group mean; for Collagen 1A1 (Normalized Expression) / Collagen 3A1 (Normalized Expression): individual animals, 20 mg/kg
Protocol: Unilateral ureteral obstruction (UUO) is a well-established experimental model of renal injury leading to interstitial fibrosis, and thus is used as an experimental model that is reflective of human kidney disease. UUO is induced by surgically ligating a single ureter. As fibrosis is characterized by an increase in collagen, the presence and extent of kidney fibrosis may be determined by measuring collagen content. Both collagen 1A1 (Col 1A1) and collagen 3A1 (Col 3A1) are measured to assess collagen content. Kidney fibrosis may be visualized by staining tissue samples with picro-sirius red to detect increases in collagen content. Kidney fibrosis may also be observed by measuring the amount of hydroxyproline, which is a major component of collagen, in a sample.
The cEt-containing anti-miR-21 compounds found to be active in the luciferase assay were tested in the UUO model of kidney fibrosis. 25919 comprising 2′-MOE and 2′-fluoro modifications is known to inhibit miR-21 activity in vivo and was included as a positive control. Groups of 8 animals each were treated as follows: UUO only, UUO with PBS, or UUO with anti-miR-21 compound. Relative to the day of the UUO procedure, PBS or anti-miR-21 compound was administered at days −3, −1, and +5. Anti-miR-21 compounds were administered at a dose of 20 mg/kg. As the anti-miR compounds were administered prior to the UUO procedure, this dosing regimen is considered a prophylactic treatment. At day 11, animals were sacrificed and kidney was isolated for measurement of collagen expression. Collagen expression was measured by real-time PCR and normalized first to GAPDH and then to the sham control animals.
The UUO study was repeated to confirm the activity of 25070. The anti-miR was administered subcutaneously at a dose of 20 mg/kg.
Control treatment groups included UUO only (sham) and UUO with PBS administered subcutaneously. An additional control group included UUO with Tween-MC/20 carrier perorally. 25070 administered subcutaneously at dose of 20 mg/kg at 5 days prior to, 2 days prior to, and 3 days after, the UUO procedure. Irbesartan was administered perorally on daily on days 0 through 7 following the UUO procedure. Animals were sacrificed on Day 10 following the UUO procedure. Kidney tissue was collected for measurement of collagen 1A1 and collagen 3A1 expression.
Compounds 25220 and 25221, as well as 25923, were tested in the UUO model for their effects on fibrosis. Groups of 8 animals each were treated as follows: sham surgery, UUO with PBS, UUO with 25220, UUO with 25221, or UUO with 25923. Relative to the day of the UUO procedure, PBS or anti-miR-21 compound was administered at days −5, −3, and +3. Anti-miR-21 compounds were administered at a dose of 20 mg/kg. As the anti-miR compounds were administered prior to the UUO procedure, this dosing regimen is considered a prophylactic treatment. At day 10, animals were sacrificed and kidney was isolated for measurement of collagen expression. Collagen expression was measured by real-time PCR and normalized to GAPDH.

[3] = Table O, unilateral IRI, 20 mg/kg intraperitoneally on days 5, 6, 7, day 14, IRI-PBS mean 63.9
[4] = Table O, unilateral IRI, 20 mg/kg intraperitoneally on days 5, 6, 7, day 14, IRI-PBS mean 85.1
[5] = Table O, unilateral IRI 30 minutes, 20 mg/kg intraperitoneally on days 5, 6, 7 (therapeutic), sacrifice 14 days after IRI, 20 mg/kg
[6] = IRI mouse, 14 day study, dosing Day 5, 6, 7, relative to sham
[7] = IRI mouse, 14 day study, intraperitoneal dosing Day 3, 5, 7, relative to sham
[8] = unilateral IRI mouse, 20 mg/kg intraperitoneally on days 5, 6, 7, 14, and 21, kidney, sacrificed Day 27
[9] = unilateral IRI mouse, 20 mg/kg intraperitoneally on days 5, 6, 7, 14, and 21, kidney, sacrificed Day 27, 20 mg/kg
[10] = Table K, UUO mice, 20 mg/kg at days -3, -1, +5, kidney at day 11, UUO-PBS mean 87.2
[11] = Table K, UUO mice, 20 mg/kg at days -3, -1, +5, kidney at day 11, UUO-PBS mean 114.9
[12] = Table K, UUO mice, 20 mg/kg at days -3, -1, +5 (prophylactic), kidney at day 11, real-time PCR normalized to GAPDH then sham
[13] = Table L, repeat UUO study, 20 mg/kg SC, prophylactic
[14] = Table M, UUO, 25070 20 mg/kg s.c. 5 and 2 days prior to and 3 days after UUO, irbesartan PO daily days 0-7, sacrifice Day 10
[15] = meta-analysis of UUO studies, 20 mg/kg at days -3, -1, +5, kidney at day 11
[16] = repeated UUO study, subcutaneously 20 mg/kg, prophylactic

AECSATCSAGTCSTGAUSAAGCSTAE (ACATCAGTCTGATAAGCTA; modified nucleosides, phosphorothioate linkages, chemistry not fully specified) [Compound 25070]
reduction of collagen expression (collagen 1A1 or collagen 3A1, significance) ([1]; IRI, 14 day studies, either dosing schedule (days 5, 6, 7 or days 3, 5, 7)): statistically significant reduction of collagen expression with either dosing schedule | Collagen 3A1 (Normalized Expression) Mean [1, 3]: 34.2 | Collagen 1A1 (Normalized Expression) Mean [1, 4]: 50.2 | Collagen 1A1 (Normalized Expression) [1, 5]: 81.7 and 57.4 and 37.9 and 55.3 and 22.3 and 52.4 and 53.0 and 41.5 | Collagen 3A1 (Normalized Expression) [1, 5]: 57.8 and 18.1 and 39.3 and 36.0 and 20.6 and 38.6 and 33.4 and 29.7 | Collagen 1A1 (Normalized Expression) Mean [1, 6]: 24.5 | Collagen 3A1 (Normalized Expression) Mean [1, 6]: 26.2 | Collagen 1A1 (Normalized Expression) Mean [1, 7]: 27.2 | Collagen 3A1 (Normalized Expression) Mean [1, 7]: 27.9 | Collagen 1A1 (Normalized Expression) Mean [1, 8]: 31.4 | Collagen 3A1 (Normalized Expression) Mean [1, 8]: 20.8 | Collagen 1A1 (Normalized Expression) [1, 6]: 21.7 and 22.8 and 15.8 and 27.6 and 27.1 and 29.3 and 10.8 and 21.5 and 29.9 and 35.0 and 28.3 and 24.2 | Collagen 3A1 (Normalized Expression) [1, 6]: 24.9 and 26.3 and 13.6 and 25.4 and 32.7 and 29.9 and 9.7 and 22.2 and 33.2 and 35.4 and 32.3 and 28.9 | Collagen 1A1 (Normalized Expression) [1, 7]: 37.5 and 21.9 and 35.3 and 26.0 and 24.9 and 16.8 and 30.8 and 34.3 and 36.8 and 9.4 and 28.0 and 24.6 | Collagen 3A1 (Normalized Expression) [1, 7]: 35.3 and 23.6 and 32.1 and 25.1 and 31.3 and 18.6 and 30.3 and 37.6 and 40.0 and 9.5 and 23.2 and 28.7 | Collagen 1A1 (Normalized Expression) [1, 9]: 26.4 and 37.4 and 41.9 and 36.8 and 14.1 and 27.7 and 29.4 and 37.6 | Collagen 3A1 (Normalized Expression) [1, 9]: 16.4 and 27.0 and 28.5 and 19.6 and 11.3 and 19.3 and 21.4 and 23.1 | Collagen 3A1 (Normalized Expression) Mean [2, 10]: 55.5 | Collagen 1A1 (Normalized Expression) Mean [2, 11]: 81.0 | Collagen 1A1 (Normalized Expression) [2, 12]: 67.7 and 97.7 and 88.8 and 95.9 and 71.4 and 44.5 and 73.0 and 109.4 | Collagen 3A1 (Normalized Expression) [2, 12]: 36.4 and 75.6 and 47.3 and 55.5 and 63.3 and 28.5 and 64.2 and 72.9 | Collagen 3A1 (Normalized Expression) Mean ([2]; Table L, repeat UUO study, 20 mg/kg SC, prophylactic, UUO-PBS mean 58.8): 42.4 | Collagen 1A1 (Normalized Expression) Mean ([2]; Table L, repeat UUO study, 20 mg/kg SC, prophylactic, UUO-PBS mean 74.3): 30.2 | Collagen 1A1 (Normalized Expression) [2, 13]: 13.9 and 9.2 and 32.3 and 57.2 and 47.6 and 26.1 and 35.0 and 20.4 | Collagen 3A1 (Normalized Expression) [2, 13]: 34.9 and 47.4 and 25.3 and 38.0 and 47.9 and 54.3 and 56.1 and 35.2 | Collagen 3A1 (Normalized Expression) Mean ([2]; Table M, UUO, 25070 20 mg/kg s.c., irbesartan PO daily days 0-7, Day 10, UUO-PBS 93.2, Tween/MC vehicle 132.4): 53.7 | Collagen 1A1 (Normalized Expression) Mean ([2]; Table M, UUO, 25070 20 mg/kg s.c., irbesartan PO daily days 0-7, Day 10, UUO-PBS 129.6, Tween/MC vehicle 150.2): 64.2 | Collagen 1A1 (Normalized Expression) [2, 14]: 87.5 and 67.4 and 22.2 and 61.9 and 42.0 and 69.2 and 68.4 and 95.2 | Collagen 3A1 (Normalized Expression) [2, 14]: 38.6 and 56.9 and 77.2 and 50.7 and 76.4 and 49.7 and 44.3 and 35.9 | reduction in Col3a1 expression (significance) ([2]; UUO, comparison with irbesartan, sacrifice Day 10): statistically significant reductions | reduction in Col1A1 expression relative to saline-treated animals (significance) ([2]; UUO, comparison with irbesartan, sacrifice Day 10, p<0.05 by one-way ANOVA): statistically significant reduction | reduction in collagen expression (in words) ([2]; meta-analysis of UUO studies, 20 mg/kg at days -3, -1, +5): greatest potency | inhibition of collagen 1A1 [2, 15]: 40% | inhibition of collagen 3A1 [2, 15]: 30% | collagen 1A1 expression (in words) [2, 16]: potent inhibitor of collagen 1A1 and collagen 3A1 expression | collagen 3A1 expression (in words) [2, 16]: potent inhibitor of collagen 1A1 and collagen 3A1 expression

UECEAFAFCFAFUFCFAFGFUFCEUEGEAFUFAFAFGFCFUEAE (antisense TCAACATCAGTCTGATAAGCTA; listed as DNA, chemistry not fully specified) [Compound 25919, reference compound]
Collagen 3A1 (Normalized Expression) Mean [1, 3]: 59.9 | Collagen 1A1 (Normalized Expression) Mean [1, 4]: 72.0 | Collagen 1A1 (Normalized Expression) [1, 5]: 108.7 and 103.9 and 29.5 and 95.8 and 35.5 and 42.2 and 64.1 and 96.4 | Collagen 3A1 (Normalized Expression) [1, 5]: 87.5 and 72.3 and 14.3 and 104.4 and 27.1 and 34.9 and 56.1 and 82.8 | Collagen 1A1 (Normalized Expression) Mean [1, 8]: 48.3 | Collagen 3A1 (Normalized Expression) Mean [1, 8]: 34.9 | Collagen 1A1 (Normalized Expression) [1, 9]: 75.5 and 50.4 and 49.2 and 43.2 and 41.7 and 53.6 and 44.8 and 28.0 | Collagen 3A1 (Normalized Expression) [1, 9]: 40.2 and 43.1 and 34.5 and 35.7 and 41.1 and 36.9 and 24.5 and 22.9 | Collagen 3A1 (Normalized Expression) Mean [2, 10]: 56.9 | Collagen 1A1 (Normalized Expression) Mean [2, 11]: 86.6 | Collagen 1A1 (Normalized Expression) [2, 12]: 150.2 and 54.2 and 84.6 and 67.7 and 78.7 and 62.2 and 89.2 and 106.2 | Collagen 3A1 (Normalized Expression) [2, 12]: 67.1 and 33.9 and 87.6 and 47.3 and 67.7 and 46.7 and 47.0 and 57.8
